In data set [1] the target is T1, recombinant full-length PDE2A protein (Homo sapiens, UniProt O00408).
T1 construct: Expression of recombinant full-length PDE2A protein in insect Sf9 cells; GST (N); made in house; host or cells: insect Sf9 cells (baculovirus)
The experiment in a line: Evaluation of PDE2 phosphodiesterase inhibitory activity in vitro (fluorescence polarization, Transcreener AMP2/GMP2). Type of data set: biochemical. The note with it: IC50 classes; substrate 1 μM cGMP; room temperature one hour. As for the experimental part:
Experimental objective: The substituted Alexa Fluor 633 fluorescent dye on the AMP/GMP antibodies was detected by the fluorescence polarization analysis to determine the concentration of AMP/GMP produced in the reaction system, which was used to calculate the IC50 values of the test compounds against PDE2 phosphodiesterase.
The measured buffer solution: 10 mM Tris-HCl, pH 7.5, 5 mM MgCl2, 0.01% Brij 35, 1 mM DTT, and 1% DMSO.
Enzyme: Expression of recombinant full-length PDE2A protein in insect Sf9 cells using N-terminal GST-tag with baculovirus.
Transcreener® AMP^2/GMP^2 antibody, AMP2/GMP2 AlexaFluor 633 fluorescent dye.
The enzyme solution was prepared using freshly prepared buffer solution, and then added to the reaction holes, the DMSO solutions of the test compounds were added by the Echo550 non-contact nanoliter acoustic pipetting system, and then pre-incubated at room temperature for 10 minutes, the reaction was initiated by the addition of the substrate (1 μM cGMP), and then reacted at room temperature for one hour. And then the detection system (Transcreener® AMP^2/GMP^2 antibody, AMP2/GMP2 AlexaFluor 633 fluorescent dye) was added, reacted at room temperature for 90 minutes, the fluorescence polarization was detected using Ex/Em 620/688.
The fluorescence polarization intensity was converted to nM concentration by AMP/GMP standard curve, The relative enzyme activity relative to DMSO blank was calculated, IC50 values and curves were calculated using Prism software packages (GraphPad Software, San Diego Calif., USA).
(In general: In fluorescence polarisation assays a small probe gives low polarisation when free and higher when bound to something large.)

Another data set has as its system TNF-α. The experiment in a line: Effect of compounds on TNF-α in LPS-induced blood of rats in vitro (ELISA). The note with it: compound 100 μM; LPS-induced rat blood, 5 hours; plasma TNF-α by ELISA; read-out: TNF-α inhibition ratio. It is filed as cell-based, Sprague Dawley rats. As for the experimental part: Experimental objective: Detect the effects of compounds on TNF-α in LPS-induced blood of rats in vitro, evaluate the inhibitory effect of the compounds on TNF-α in LPS-induced blood of rats.
Sprague Dawley rats (male, 210-260 g, 8-10 weeks old, Shanghai Slack);
Rat TNF-alpha Quantikine ELISA Kit (R&D, #SRTA00).
Test compounds solutions with a concentration of 1 mM were prepared, 40 μL of which (the final concentration of the compound was 100 μM) was respectively added to 48-hole cell culture plates. Rats were anesthetized with isoflurane, heart blood was collected (heparin was used to anticoagulation). The blood was added to the 48-hole plates holding the test compounds, 320 μL per hole. The 48-hole plates were placed in a cell incubator and incubated for 30 minutes, 40 μL LPS solution was added (100 μg/mL), mixed and placed in the incubator and continued to incubate. the 48-hole plates was taken out after 5 hours, the blood samples were transferred to 1.5 mL centrifuge tubes, centrifuged in a centrifuge (4,500 rpm, 4° C., 5 minutes), the upper plasma were separated, frozen after storage and stored in a refrigerator at −80° C. The levels of TNF-α in plasma samples were measured using the R & D ELISA kit according to the kit instructions the nest day.
On the technique in general: An ELISA detects its analyte on a solid surface through an enzyme-linked reagent.

Data set [2] in a line: Pharmacokinetic evaluation of compounds in SD rats. The note with it: single intravenous injection and oral administration; for bioavailability / clearance / AUC / half-life: male, Sprague-Dawley, rat, plasma; for bioavailability: read-out: Bioavailability F; for clearance: read-out: Clearance rate; for AUC: read-out: Concentration integration AUC; for half-life: read-out: Half-life T1/2 (converted). It is filed as in vivo, Sprague Dawley rats. As for the experimental part:
Experimental objective: The pharmacokinetics of test compounds in SD rats.
Sprague Dawley rats (male, 200-300 g, 7-9 weeks old, Shanghai Slack).
The pharmacokinetic characteristics of rodents after intravenous and oral administration of the compounds were tested according to the standard protocol, in the experiment, the candidate compound was formulated into a clear solution, and the rats were given single intravenous injection and oral administration. Intravenous and oral solvents are a certain proportion of hydroxypropyl βcyclodextrin aqueous solution or physiological saline solution. Blood samples within 24 hours were collected, centrifuged (3000 g) for 15 minutes, the supernatant were separated to obtain the plasma samples, the protein was precipitated by adding a 4 times volume of acetonitrile solution that containing the internal standard, centrifuged and the supernatant was then centrifuged after adding equal volume of water, then the supernatant was injected, the plasma concentration was quantitatively analyzed by LC-MS/MS analysis, and pharmacokinetics parameters such as peak concentration, peak time, clearance rate, half-life, drug area under the curve, bioavailability etc. are calculated.

pIC50: −log10 of the molar value.

T1 sequence (O00408 whole entry, species assumed): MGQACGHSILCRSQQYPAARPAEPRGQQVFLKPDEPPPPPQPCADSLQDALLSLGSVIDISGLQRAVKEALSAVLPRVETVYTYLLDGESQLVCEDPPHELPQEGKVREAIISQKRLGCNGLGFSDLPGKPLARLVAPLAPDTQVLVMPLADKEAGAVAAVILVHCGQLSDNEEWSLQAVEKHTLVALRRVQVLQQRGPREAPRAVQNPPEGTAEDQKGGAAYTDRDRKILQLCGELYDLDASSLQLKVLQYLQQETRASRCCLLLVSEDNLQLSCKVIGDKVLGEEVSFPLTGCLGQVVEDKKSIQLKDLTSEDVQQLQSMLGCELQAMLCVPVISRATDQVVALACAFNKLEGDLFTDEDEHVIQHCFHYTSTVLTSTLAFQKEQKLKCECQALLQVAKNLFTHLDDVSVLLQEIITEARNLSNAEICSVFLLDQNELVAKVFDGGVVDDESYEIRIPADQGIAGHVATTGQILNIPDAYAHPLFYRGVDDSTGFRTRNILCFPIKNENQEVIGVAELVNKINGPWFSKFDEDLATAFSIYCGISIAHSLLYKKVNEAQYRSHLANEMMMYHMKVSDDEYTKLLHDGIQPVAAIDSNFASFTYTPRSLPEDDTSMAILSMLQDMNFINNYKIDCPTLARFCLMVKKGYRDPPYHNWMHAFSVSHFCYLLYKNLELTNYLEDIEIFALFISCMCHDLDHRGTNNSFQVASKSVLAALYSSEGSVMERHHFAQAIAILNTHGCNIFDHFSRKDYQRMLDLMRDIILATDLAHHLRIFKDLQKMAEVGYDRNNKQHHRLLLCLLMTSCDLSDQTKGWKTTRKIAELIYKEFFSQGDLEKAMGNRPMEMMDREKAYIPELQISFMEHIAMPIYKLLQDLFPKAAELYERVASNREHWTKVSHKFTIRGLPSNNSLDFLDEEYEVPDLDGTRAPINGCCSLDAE

Broadly, the pIC50 is the negative decadic logarithm of the IC50, by convention in mol/L. As for `Cn1cnc2c1c(=O)n(CC1CCC(O)(C(F)(F)F)CC1)c(=O)n2C` (single isomer, unassigned) [Embodiment 12 isomer 1], in data set [1], the negative logarithm of the IC50 (pIC50) is 4.30 to 5.00. Further, the inhibition at 100 µM in the data set with TNF-α fell in the range of 60 to 80%.
In the case of `Cn1cnc2c1c(=O)n(CC1CCC(O)(C(F)(F)F)CC1)c(=O)n2C` (single isomer, unassigned) [Embodiment 12 isomer 2], in data set [1], the pIC50 is 5.00 to 6.00. In addition, in data set [2], the bioavailability worked out at 34.1%, the clearance was found to be 41 mL/min/kg, the AUC is 3.85 µM·h and the half-life is 1.6 h.
Taken in the same sequence, the figures for `Cn1c(=O)n(CC2CCC(O)(C(F)(F)F)CC2)c(=O)c2c1ncn2CC(F)(F)F` (single isomer, unassigned) [Embodiment 45 isomer 2, 1-((4-Hydroxy-4-(trifluoromethyl)cyclohexyl)methyl)-3-methyl-7-(2,2,2-trifluoroethyl)-1H-purine-2,6(3H,7H)-dione] were 5.00 to 6.00, 17.1%, 58.4 mL/min/kg, 1.29 µM·h and 6.19 h.
For the compound `Cn1c(=O)n(CC2CCC(O)(C(F)(F)F)CC2)c(=O)c2c1ncn2CC1CC1` (single isomer, unassigned) [Embodiment 50 isomer 2, 7-(Cyclopropylmethyl)-1-((4-hydroxy-4-(trifluoromethyl)cyclohexyl)methyl)-3-methyl-1H-purine-2,6(3H,7H)-dione], the pIC50 in data set [1] is greater than 6.00. In data set [2], the bioavailability is 42.6%, the clearance was found to be 71.6 mL/min/kg, the AUC came to 2.49 µM·h and the half-life is 0.56 h. Further, in the data set with TNF-α, the inhibition at 100 µM was in the range of 80 to 100%.
As for `Cn1c(=O)n(CC2CCC(C)(O)CC2)c(=O)c2c1ncn2CC1CC1` (single isomer, unassigned) [Embodiment 51 isomer 2], the pIC50 in data set [1] is 5.00 to 6.00. In addition, in data set [2], the bioavailability was 47.9%, the clearance came out at 54.4 mL/min/kg, the AUC was determined as 4.39 µM·h and the half-life was 0.793 h. In addition, the inhibition at 100 µM in the data set on TNF-α is 80 to 100%.
In the case of `Cn1cnc2c1c(=O)n(CCCCC(C)(O)C(F)(F)F)c(=O)n2C` (stereo not drawn) [Embodiment 1, 3,7-Dimethyl-1-(6,6,6-trifluoro-5-hydroxy-5-methylhexyl)-1H-purine-2,6(3H,7H)-dione], the pIC50 in data set [1] was 4.30 to 5.00. Moreover, in data set [2], the bioavailability amounted to 59.7%, the clearance worked out at 54.7 mL/min/kg, the AUC amounted to 1.91 µM·h and the half-life is 0.659 h. Also, the inhibition at 100 µM in the data set on TNF-α was 60 to 80%.
For `CCC(O)(CC)CCCCn1c(=O)c2c(ncn2C)n(C)c1=O` [Embodiment 2, 1-(5-Ethyl-5-hydroxyheptyl)-3,7-dimethyl-1H-purine-2,6(3H,7H)-dione], the pIC50 in data set [1] is 5.00 to 6.00. In data set [2], the bioavailability came out at 34.2%, the clearance came to 63.6 mL/min/kg, the AUC was 0.902 µM·h and the half-life is 0.481 h.
Take `Cn1cnc2c1c(=O)n(CC1CCC(O)(C(F)(F)F)CC1)c(=O)n2C` (stereo not drawn) [Embodiment 11, 1-((4-Hydroxy-4-(trifluoromethyl)cyclohexyl)methyl)-3,7-dimethyl-1H-purine-2,6(3H, 7H)-dione]: the pIC50 in data set [1] is 4.30 to 5.00. For the same compound, the inhibition at 100 µM with TNF-α was 60 to 80%.
Regarding `Cn1cnc2c1c(=O)n(C[C@H]1CC[C@](O)(C(F)(F)F)CC1)c(=O)n2C` [Embodiment 12, 1-(((1S,4S)-4-Hydroxy-4-(trifluoromethyl)cyclohexyl)methyl)-3,7-dimethyl-1H-purine-2,6(3H,7H)-dione], in data set [2], the “Bioavailability F” value is listed as 41.2%, the Clearance rate amounted to 32.7 mL/min/kg, the “Concentration integration AUC” value is 5.863 µM·h and the “Half-life T1/2” value is given as 3.12 h.
As for `Cn1cnc2c1c(=O)n(Cc1ccc(C(C)(O)C(F)(F)F)cc1)c(=O)n2C` (stereo not drawn) [Embodiment 27], the negative logarithm of the IC50 (pIC50) in data set [1] is 5.00 to 6.00. In data set [2], the bioavailability amounted to 33.8%, the clearance is 13.6 mL/min/kg, the AUC was 11.4 µM·h and the half-life is 2.96 h. Also, the inhibition at 100 µM in the data set on TNF-α fell in the range of 60 to 80%.
As for `Cn1cnc2c1c(=O)n(Cc1ccc(C(C)(O)C(F)(F)F)nc1)c(=O)n2C` (stereo not drawn) [Embodiment 28], in data set [1], the pIC50 is 5.00 to 6.00. In data set [2], the bioavailability came out at 149%, the clearance is 12.9 mL/min/kg, the AUC is 51.2 µM·h and the half-life is 2.27 h.
Regarding `C[C@H](O)CNCCn1c(=O)c2c(ncn2C)n(C)c1=O` [Embodiment 40, (S)-1-(2-((2-Hydroxypropyl)amino)ethyl)-3,7-dimethyl-1H-purine-2,6(3H,7H)-dione], in the data set with TNF-α, the inhibition at 100 µM lay in the range of 60 to 80%.
Turning to `Cn1c(=O)n(CC2CCC(O)(C(F)(F)F)CC2)c(=O)c2c1ncn2CC(F)(F)F` (stereo not drawn) [Embodiment 44, 1-((4-Hydroxy-4-(trifluoromethyl)cyclohexyl)methyl)-3-methyl-7-(2,2,2-trifluoroethyl)-1H-purine-2,6(3H,7H)-dione], the pIC50 in data set [1] was 5.00 to 6.00. Further, the inhibition at 100 µM in the data set on TNF-α was 80 to 100%.
As to `Cn1c(=O)n(CC2CCC(O)(C(F)(F)F)CC2)c(=O)c2c1ncn2CC1CC1` (stereo not drawn) [Embodiment 49, 7-(Cyclopropylmethyl)-1-((4-hydroxy-4-(trifluoromethyl)cyclohexyl)methyl)-3-methyl-1H-purine-2,6(3H,7H)-dione], in data set [1], the pIC50 is 5.00 to 6.00. The inhibition at 100 µM with TNF-α is 80 to 100%.
Regarding `Cn1c(=O)n(Cc2ccc(C(C)(O)C(F)(F)F)nc2)c(=O)c2c1ncn2CC1CC1` (stereo not drawn) [Embodiment 55, 7-(Cyclopropylmethyl)-3-methyl-1-((6-(1,1,1-trifluoro-2-hydroxypropan-2-yl)pyridin-3-yl)methyl)-1H-purine-2,6-(3H,7H)-dione], the pIC50 in data set [1] was greater than 6.00. Also, in data set [2], the bioavailability was 95.8%, the clearance came to 21.5 mL/min/kg, the AUC is 17.8 µM·h and the half-life was 2.18 h. In the data set with TNF-α, the inhibition at 100 µM was in the range of 80 to 100%.

Values taken from patent USRE49128E1, “Hydroxyl purine compounds and applications thereof” (GUANGDONG RAYNOVENT BIOTECH CO., LTD., priority 2014, dated 2022).
